Assay results from patent EP4227307A1 (Genzyme Corporation, priority 2022, dated 2023).
Where a name gives a salt, the structure may show the parent alone.

Molecular target: T1, human recombinant 6His-Nterm SHP2 full-length (Thr2-Arg593) (Homo sapiens, UniProt Q06124)
T1 construct: 6His-Nterm SHP2 full-length (Thr2-Arg593, R&D system); 6His (N); purchased R&D system
T1 sequence (Q06124 2-593): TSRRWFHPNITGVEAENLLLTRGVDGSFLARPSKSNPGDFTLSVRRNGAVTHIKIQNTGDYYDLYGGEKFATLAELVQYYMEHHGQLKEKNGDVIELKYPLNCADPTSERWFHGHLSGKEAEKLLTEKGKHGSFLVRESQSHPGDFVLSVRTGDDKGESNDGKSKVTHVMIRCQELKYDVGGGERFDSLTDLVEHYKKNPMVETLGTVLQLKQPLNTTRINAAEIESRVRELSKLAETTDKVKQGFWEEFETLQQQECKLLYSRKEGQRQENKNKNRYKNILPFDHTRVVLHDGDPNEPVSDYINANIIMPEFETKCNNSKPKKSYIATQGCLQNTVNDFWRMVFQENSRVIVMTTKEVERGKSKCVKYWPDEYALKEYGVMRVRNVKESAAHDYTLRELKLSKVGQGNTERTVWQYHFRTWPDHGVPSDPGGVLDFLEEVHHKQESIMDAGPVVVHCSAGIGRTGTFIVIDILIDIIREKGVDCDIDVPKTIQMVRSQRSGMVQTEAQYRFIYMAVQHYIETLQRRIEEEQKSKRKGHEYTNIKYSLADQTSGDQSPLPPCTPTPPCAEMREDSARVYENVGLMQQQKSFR
Assay: SHP2 Phosphatase Assay (DiFMUP fluorescence)
Type: biochemical
Conditions: SHP2 0.2 nM pre-incubated with 100 nM bi-phosphorylated activating peptide; compound 1000-0.05 nM, 30 min pre-incubation; DiFMUP 20 µM, 45 min, room temperature; 10-concentration dose-response
Method in brief: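 SHP2 (0.2 nM) preactivated ≥10 min with 100 nM bis-phosphorylated peptide, then 30 min with compound (10 concentrations, 1000–0.05 nM) at room temperature, pH 7.2 HEPES buffer with DTT. DiFMUP (20 µM, added solution) reacted 45 min, pervanadate-stopped; fluorescence 350/450 nm. IC50 by 4-parameter logistic fit.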

Row | Structure (SMILES) | IC50
1 | Cc1nc(N2CCC3(CC2)Cc2ncccc2[C@H]3N)c2c(C(F)F)cnn2c1-c1ccccc1F [Compound 147, (5S)-1'-[3-(difluoromethyl)-7-(2-fluorophenyl)-6-methyl-pyrazolo[1,5-a]pyrazin-4-yl]spiro[5,7-dihydrocyclopenta[b]pyridine-6,4'-piperidine]-5-amine] | > 1000 nM
2 | CCn1cc(-c2c(C)nc(N3CCC4(CC3)Cc3cc(OC)ccc3[C@H]4N)c3ccnn23)cn1 [Compound 148, (1S)-1'-[7-(1-ethylpyrazol-4-yl)-6-methyl-pyrazolo[1,5-a]pyrazin-4-yl]-5-methoxy-spiro[indane-2,4'-piperidine]-1-amine] | 9 nM
3 | Cc1nc(N2CCC3(CC2)Cc2ccccc2[C@H]3N)c2ccnn2c1-c1cnn(C)c1C [Compound 149, (1S)-1'-[7-(1,5-dimethylpyrazol-4-yl)-6-methyl-pyrazolo[1,5-a]pyrazin-4-yl]spiro[indane-2,4'-piperidine]-1-amine] | 17 nM
4 | Cc1nc(N2CCC3(CC2)Cc2ccccc2[C@H]3N)c2ccnn2c1-c1cnoc1C [Compound 150, (1S)-1'-[6-methyl-7-(5-methylisoxazol-4-yl)pyrazolo[1,5-a]pyrazin-4-yl]spiro[indane-2,4'-piperidine]-1-amine] | 140 nM
5 | Cc1nccc(-c2c(C)nc(N3CCC4(CC3)Cc3ccccc3[C@H]4N)c3ccnn23)c1F [Compound 151, (1S)-1'-[7-(3-fluoro-2-methyl-4-pyridyl)-6-methyl-pyrazolo [1 ,5-a]pyrazin-4-yl]spiro[indane-2,4'-piperidine]-1-amine] | 9 nM
6 | Cc1ncc(-c2c(C)nc(N3CCC4(CC3)Cc3ncccc3[C@H]4N)c3ccnn23)s1 [Compound 152, (5S)-1'-[6-methyl-7-(2-methylthiazol-5-yl)pyrazolo [1,5-a]pyrazin-4-yl]spiro[5,7-dihydrocyclopenta[b]pyridine-6,4'-piperidine] -5-amine] | 9 nM
7 | Cc1nc(N2CCC3(CC2)Nc2ccccc2[C@H]3N)c2ccnn2c1-c1ccccc1F [Compound 153, (3R)-1'-[7-(2-fluorophenyl)-6-methyl-pyrazolo[1,5-a]pyrazin-4-yl]spiro[indoline-2,4'-piperidine]-3-amine hydrochloride] | 15 nM
8 | Cc1nccc(-c2c(C)nc(N3CCC4(CC3)Nc3ccccc3[C@H]4N)c3ccnn23)c1Cl [Compound 154, (3R)-1'-[7-(3-chloro-2-methyl-4-pyridyl)-6-methyl-pyrazolo[1,5-a]pyrazin-4-yl]spiro[indoline-2,4'-piperidine]-3-amine hydrochloride] | 4 nM
9 | Cc1nc(N2CCC3(CC2)[C@H](N)c2ccccc2N3C)c2ccnn2c1-c1ccccc1F [Compound 155, (3R)-1'-[7-(2-fluorophenyl)-6-methyl-pyrazolo[1,5-a]pyrazin-4-yl]-1-methyl-spiro [indoline-2,4'-piperidine]-3-amine] | 202 nM
10 | Cc1nccc(-c2c(C)nc(N3CCC4(CC3)[C@H](N)c3ccccc3N4C)c3ccnn23)c1Cl [Compound 156, (3R)-1'-[7-(3-chloro-2-methyl-4-pyridyl)-6-methyl-pyrazolo[1,5-a]pyrazin-4-yl]-1-methyl-spiro[indoline-2,4'-piperidine]-3-amine] | 35 nM
11 | Cc1nc(N2CCC3(CC2)Cc2ncccc2[C@H]3N)c2ccnn2c1-c1cncs1 [Compound 157, (5S)-1'-(6-methyl-7-thiazol-5-yl-pyrazolo[1,5-a]pyrazin-4-yl)spiro[5,7-dihydrocyclopenta[b]pyridine-6,4'-piperidine] -5-amine hydrochloride] | 72 nM
12 | Cc1nc(-c2c(C)nc(N3CCC4(CC3)Cc3ncccc3[C@H]4N)c3ccnn23)cs1 [Compound 158, (5S)-1'-[6-methyl-7-(2-methylthiazol-4-yl)pyrazolo[1,5-a]pyrazin-4-yl]spiro[5,7-dihydrocyclopenta[b]pyridine-6,4'-piperidine] -5-amine hydrochloride] | 47 nM
13 | Cc1nc(N2CCC3(CC2)Cc2ncccc2[C@H]3N)c2ccnn2c1-c1ccnnc1 [Compound 159, (5S)-1'-(6-methyl-7-pyridazin-4-yl-pyrazolo[1,5-a]pyrazin-4-yl)spiro[5,7-dihydrocyclopenta[b]pyridine-6,4'-piperidine]-5-amine hydrochloride] | 649 nM
14 | Cc1nc(N2CCC3(CC2)Cc2ncccc2[C@H]3N)c2ccnn2c1-c1cscn1 [Compound 160, (5S)-1'-(6-methyl-7-thiazol-4-yl-pyrazolo[1,5-a]pyrazin-4-yl)spiro[5,7-dihydrocyclopenta[b]pyridine-6,4'-piperidine]-5-amine hydrochloride] | 63 nM
15 | Cc1nc(C)c(-c2c(C)nc(N3CCC4(CC3)Cc3ncccc3[C@H]4N)c3ccnn23)s1 [Compound 161, (5S)-1'-[7-(2,4-dimethylthiazol-5-yl)-6-methyl-pyrazolo[1,5-a]pyrazin-4-yl]spiro [5,7-dihydrocyclopenta[b]pyridine-6,4'-piperidine]-5-amine hydrochloride] | 29 nM
16 | Cc1nc(N2CCC3(CC2)Cc2ncccc2[C@H]3N)c2ccnn2c1-c1ccc2c(c1)OCC2 [Compound 162, (5S)-1'-[7-(2,3-dihydrobenzofuran-6-yl)-6-methyl-pyrazolo[1,5-a]pyrazin-4-yl]spiro[5,7-dihydrocyclopenta[b]pyridine-6,4'-piperidine]-5-amine] | 4 nM
17 | Cc1nc(N2CCC3(CC2)Cc2ncccc2[C@H]3N)c2ccnn2c1-c1cc(C(F)(F)F)nn1C [Compound 163, (5S)-1'-[6-methyl-7-[2-methyl-5-(trifluoromethyl)pyrazol-3-yl]pyrazolo[1,5-a]pyrazin-4-yl]spiro[5,7-dihydrocyclopenta[b]pyridine-6,4'-piperidine]-5-amine] | 30 nM
18 | Cc1cccc(-c2c(C)nc(N3CCC4(CC3)Cc3ncccc3[C@H]4N)c3ccnn23)c1C [Compound 164, (5S)-1'-[7-(2,3-dimethylphenyl)-6-methyl-pyrazolo[1,5-a]pyrazin-4-yl]spiro[5,7-dihydrocyclopenta[b]pyridine-6,4'-piperidine]-5-amine] | 7 nM
19 | Cc1nc(N2CCC3(CC2)Cc2ncccc2[C@H]3N)c2ccnn2c1-c1cncnc1 [Compound 165, (5S)-1'-(6-methyl-7-pyrimidin-5-yl-pyrazolo[1,5-a]pyrazin-4-yl)spiro[5,7-dihydrocyclopenta[b]pyridine-6,4'-piperidine]-5-amine] | 370 nM
20 | Cc1cccc(-c2c(C)nc(N3CCC4(CC3)Cc3ncccc3[C@H]4N)c3ccnn23)c1F [Compound 166, (5S)-1'-[7-(2-fluoro-3-methyl-phenyl)-6-methyl-pyrazolo[1,5-a]pyrazin-4-yl]spiro[5,7-dihydrocyclopenta[b]pyridine-6,4'-piperidine]-5-amine] | 7 nM
21 | Cc1nc(N2CCC3(CC2)Cc2ncccc2[C@H]3N)c2ccnn2c1-c1ccc2c(c1)CCCO2 [Compound 167, (5S)-1'-(7-chroman-6-yl-6-methyl-pyrazolo[1,5-a]pyrazin-4-yl)spiro[5,7-dihydrocyclopenta[b]pyridine-6,4'-piperidine]-5-amine] | 9 nM
22 | CNc1cc(-c2c(C)nc(N3CCC4(CC3)Cc3ncccc3[C@H]4N)c3ccnn23)ccn1 [Compound 168, (5S)-1'-[6-methyl-7-[2-(methylamino)-4-pyridyl]pyrazolo[1,5-a]pyrazin-4-yl]spiro[5,7-dihydrocyclopenta[b]pyridine-6,4'-piperidine]-5-amine] | 30 nM
23 | Cc1nc(N2CCC3(CC2)Cc2ncccc2[C@H]3N)c2ccnn2c1-c1ccc2cnccc2c1 [Compound 169, (5S)-1'-[7-(6-isoquinolyl)-6-methyl-pyrazolo[1,5-a]pyrazin-4-yl]spiro[5,7-dihydrocyclopenta[b]pyridine-6,4'-piperidine]-5-amine] | 16 nM
24 | Cc1nc(N2CCC3(CC2)Cc2ncccc2[C@H]3N)c2ccnn2c1-c1ccc2scnc2c1 [Compound 170, (5S)-1'-[7-(1,3-benzothiazol-5-yl)-6-methyl-pyrazolo[1,5-a]pyrazin-4-yl]spiro[5,7-dihydrocyclopenta[b]pyridine-6,4'-piperidine]-5-amine] | 11 nM
25 | Cc1nc(N2CCC3(CC2)Cc2ncccc2[C@H]3N)c2ccnn2c1-c1ccc2c(c1)CCN2C [Compound 171, (5S)-1'-[6-methyl-7-(1-methylindolin-5-yl)pyrazolo[1,5-a]pyrazin-4-yl]spiro[5,7-dihydrocyclopenta[b]pyridine-6,4'-piperidine]-5-amine] | 20 nM
26 | Cc1nc(N2CCC3(CC2)Cc2ncccc2[C@H]3N)c2ccnn2c1-c1cc(C(=O)N(C)C)ccc1F [Compound 172, 4-fluoro-N,N-dimethyl-3-[6-methyl-4-[(5S)-5-aminospiro[5,7-dihydrocyclopenta[b]pyridine-6,4'-piperidine]-1'-yl]pyrazolo[1,5-a]pyrazin-7-yl]benzamide] | > 1000 nM
